Assay results taken from paper PMC12040169 (PLOS Biology, 2025).

Test: in vitro
Conditions: human, hela cells, % viability

| Structure (SMILES) | viability at 28.5 h, 10 µM [%] |
| --- | --- |
| CCCc1nnc2sc(C3CCCN(C(C)C)C3)nn12 (centres unmarked) [CBK306781] | 85.3 |
| CSCCC(=O)NC1CCCc2nc(N3CCC(CO)CC3)ncc21 (centres unmarked) [CBK306782] | 91.3 |
| CCc1nc2c(N3CCC(n4nc(C)cc4C)C3)ncnc2o1 (centres unmarked) [CBK306785] | 111 |
| CCCCC(c1cccnc1)N(C)C(=O)c1ccnc(-n2cnnc2)c1 (centres unmarked) [CBK306786] | 84.2 |
| CC1(C#N)CCCN(C(=O)NC2CCN(Cc3cccc(O)c3)CC2)C1 (centres unmarked) [CBK306787] | 88.2 |
| Cc1noc(C)c1CCC(=O)NC(Cc1ccncc1)C1CC(O)C1 (centres unmarked) [CBK306790] | 91 |
| Cc1cnn(CCNc2cc(C(C)C)nc3ccnn23)c1 [CBK306792] | 91.5 |
| CC(C)CN(Cc1cccs1)C(=O)c1cc2n(n1)CCCN(C)C2 [CBK306793] | 102 |
| CCCNC(=O)c1ccc(C)c(NC(=O)NC2CCOC2)c1 (centres unmarked) [CBK306794] | 95.8 |
| CCCc1nc(NC(c2cccc(C)n2)C2CC2)c2cnn(C)c2n1 (centres unmarked) [CBK306795] | 88 |
| CCN(C(=O)Cn1c(C)cc(=O)c2ccccc21)C1CCOC(C)(C)C1 (centres unmarked) [CBK306797] | 93.6 |
| CSCCCNC(=O)c1ccc2c(c1)nc(N1CC[C@H](O)C1)n2C [CBK306807] | 107 |
| Cn1ncc(N2CCC(CNC(=O)COc3ccccc3)C2)cc1=O (centres unmarked) [CBK306810] | 92.3 |
| Cc1cc(=O)c2ccccc2n1CC(=O)N1CCOC2(CCCC2)C1 [CBK306811] | 93.5 |
| CCc1nccn1CCC(=O)NC1CCN(Cc2ccncc2)CC1 [CBK306813] | 107 |
| Cn1cccc1CCC(=O)NC1CCN(Cc2ccccc2Cl)CC1 [CBK306814] | 88.4 |
| Cc1cc(C(=O)NC(Cn2ccnc2)c2ccccc2)cc(=O)[nH]1 (centres unmarked) [CBK306818] | 94 |
| O=C(c1cc(CO)ccn1)N(Cc1ccccn1)CC1CCCO1 (centres unmarked) [CBK306820] | 97 |
| Cn1c(=O)oc2ccc(C(=O)N3CCn4nc(CO)cc4C3)cc21 [CBK306821] | 85.6 |
| Nc1nc(NCCOc2ccccc2Cl)cc(C2CC(N)C2)n1 (centres unmarked) [CBK306825] | 75.2 |
| Cc1nn(C)c2nc(NCc3ccc(C(=O)N4CCCCC4)cc3)sc12 [CBK306826] | 86.6 |
| O=C(O)CC1COCCN1Cc1ccc(Cn2cccn2)cc1 (centres unmarked) [CBK306827] | 89.1 |
| CCn1c(C)nnc1SCCNc1cc(C(C)C)nc2ccnn12 [CBK306829] | 81.4 |

| Structure (SMILES) | viability at 28.5 h, 10 µM [%] |
| --- | --- |
| Cn1nc(NC(=O)CN2CCOC2=O)c2c(N3CCOCC3)cccc21 [CBK306830] | 102 |
| COc1ccc2cc(C(=O)N(CCO)Cc3ccc(C)s3)n(C)c2c1 [CBK306831] | 116 |
| CCCN1CC(NS(=O)(=O)c2cc(-n3cccn3)ccc2C)CC1=O (centres unmarked) [CBK306835] | 98.3 |
| Cc1ccc(CNC(=O)c2ccc3c(c2)nc(N2CC[C@H](O)C2)n3C)s1 [CBK306837] | 90.9 |
| CNC(=O)c1cn2cc(-c3cccs3)n(CC3CC3)c(=O)c2n1 [CBK306838] | 84 |
| COc1cc(NC(=O)CN2CCc3c(c(CO)nn3C)C2)cc(OC)c1 [CBK306841] | 114 |
| COc1ccccc1CN(Cc1cccnc1)C(=O)CNC(C)=O [CBK306843] | 96.2 |
| CCOc1ccc(NC(=O)N(Cc2ccccn2)CC2CCCO2)cc1 (centres unmarked) [CBK306847] | 83.7 |
| COCCN(C)c1ccc(C(=O)N2CCC(N3CCOCC3)CC2)cn1 [CBK306851] | 111 |
| Cn1nc(C(=O)N2Cc3cnn(Cc4ccc(F)cc4)c3C2)ccc1=O [CBK306855] | 83 |
| COCCn1c(CO)nnc1[C@H]1C[C@@H](NC(=O)c2ccc(F)cc2C)C1 [CBK306856] | 94.7 |
| Cc1[nH]c(=O)c(C#N)cc1C(=O)N(C)Cc1cc(-c2ccncc2)no1 [CBK306859] | 113 |
| O=C(NC1CCC1)c1cn2cc(-c3cccs3)n(CC3CC3)c(=O)c2n1 [CBK306863] | 82.9 |
| COc1cccc(C(=O)NCCC(=O)N2CCCC(c3ncc[nH]3)C2)c1 (centres unmarked) [CBK306864] | 82.5 |
| CC(=O)Nc1cccc(C(=O)N(Cc2ccccn2)CC2CCCO2)c1 (centres unmarked) [CBK306867] | 90.5 |
| Cc1cc(=O)c2ccccc2n1CC(=O)N1CCC2(CCOCC2)CC1 [CBK306869] | 94.7 |
| COc1ncc(C(=O)NCc2cccnc2N(C)C2CCCCC2)cn1 [CBK306870] | 91.8 |
| CCCC(C)c1cn(CCc2cc(O)nc(C)n2)nn1 (centres unmarked) [CBK306871] | 93.8 |
| Cn1c(N2CC[C@H](O)C2)nc2cc(C(=O)NC3CCNCC3)ccc21 [CBK306873] | 98.1 |
| Cc1cc(O)n2nc(CC(=O)NCCCn3ccnc3C(C)C)nc2n1 [CBK306876] | 91.5 |
| Cc1c(C(=O)NCCN2CCCC(C(N)=O)C2)[nH]c2c(F)cccc12 (centres unmarked) [CBK306877] | 81.7 |
| CCCCSc1nc(N)cc(N2CCC(C(=O)NCC)C2)n1 (centres unmarked) [CBK306880] | 88.2 |
| O=C(NCCc1cccs1)Nc1cccc(CN2CCCCC2)c1 [CBK306882] | 96.1 |

| Structure (SMILES) | viability at 28.5 h, 10 µM [%] |
| --- | --- |
| COc1c(C)cc(-c2ncnc(C)c2C)cc1C [CBK306884] | 67.6 |
| Cc1nc(C)c(C(=O)NCc2cccnc2N(C)C2CCCCC2)s1 [CBK306885] | 95 |
| CN1CC2(CCCN(Cc3nnc(-c4cccnc4)o3)C2)OC1=O (centres unmarked) [CBK306888] | 110 |
| Cc1cc(-c2cn3cc(C(=O)N4CCCCC4)nc3c(=O)n2C)c(C)o1 [CBK306890] | 86.6 |
| c1cnc(NCc2cc3n(n2)CCN(CC2CCCCO2)C3)cn1 (centres unmarked) [CBK306891] | 96.4 |
| CCc1nc(-c2ccc(N(C)C)nc2)n(C)n1 [CBK306897] | 90.6 |
| CCOc1ccc(-c2ccnc(NCCNC(C)=O)n2)cc1C(=O)O [CBK306898] | 85.1 |
| CN(CCO)c1ccc(C(=O)N2CCC(N3CCOCC3)CC2)cn1 [CBK306899] | 97 |
| CCn1cc(CN(CCOC)C(=O)c2cc3c(Cl)cccc3[nH]2)cn1 [CBK306903] | 91.5 |
| COc1ccc2[nH]c(CN3CCCC(c4nc(C)n[nH]4)C3)c(C)c2c1 (centres unmarked) [CBK306904] | 101 |
| Cn1cc(CCCNC(=O)c2cccc(CN3CCCCCC3)c2)cn1 [CBK306906] | 93.7 |
| O=c1cc(N2CCCCC2)cnn1CCCn1cccn1 [CBK306907] | 90.1 |
| Nc1nc(C2CC(N)C2)cc(N2CCC(Oc3ccccc3F)CC2)n1 (centres unmarked) [CBK306909] | 85.5 |
| CCc1nc(N)nc(N2CCCC3(CN(C)C(=O)O3)C2)c1C (centres unmarked) [CBK306914] | 86.9 |
| Cc1cnc2c(Cl)c(C(=O)NCC3(CN4CCOCC4)CC3)nn2c1 [CBK306918] | 98.8 |
| COc1ccc(CN2CCOC(C(=O)O)C2)cc1Cn1cncn1 (centres unmarked) [CBK306919] | 120 |
| Cc1cc(C)n(CC2(CNC(=O)C(c3ccccc3F)N(C)C)CC2)n1 (centres unmarked) [CBK306920] | 97.2 |
| CC(Cc1ccsc1)NS(=O)(=O)c1cccc(C(=O)N2CCCC2)c1 (centres unmarked) [CBK306923] | 85.8 |
| COc1ccnc(N2CCN(Cc3cncn3C3CCCCC3)CC2)n1 [CBK306925] | 98.1 |
| COc1ccccc1CCC(=O)NCc1cnc(SC)n1C [CBK306926] | 85.9 |
| O=C(NCC(CO)Cc1ccsc1)N1CCN(c2ccncc2)CC1 (centres unmarked) [CBK306929] | 96.7 |
| Cn1nccc1C(O)c1cc2n(n1)CCCN(C(=O)Cc1cccs1)C2 (centres unmarked) [CBK306930] | 104 |
| Cc1nc(CCN2CCN(c3ccc4nccn4n3)CC2)cs1 [CBK306932] | 95.6 |

| Structure (SMILES) | viability at 28.5 h, 10 µM [%] |
| --- | --- |
| CCc1ocnc1C(=O)NC1CCN(c2ncccc2C#N)CC1 [CBK306935] | 93 |
| Cn1ncc(N2CCN(C(=O)CCCOc3ccccc3)CC2)cc1=O [CBK306937] | 84.2 |
| CSc1nnc(CC2CCN(C(=O)c3ccc(C)cc3F)CC2)n1C [CBK306939] | 105 |
| CCCCSc1nc(N)cc(N2CCN3C(=O)CN(C)C(=O)C3C2)n1 (centres unmarked) [CBK306940] | 82.4 |
| CCCc1nnc2sc(C3CCC(=O)N(C(C)C)C3)nn12 (centres unmarked) [CBK306942] | 108 |
| Cc1cccc(C(C)NC(=O)C2(Cn3ccnc3)CC2)n1 (centres unmarked) [CBK306944] | 86.4 |
| Cc1cccc(=O)n1CCCn1cc(C2CCCNC2)nn1 (centres unmarked) [CBK306946] | 91 |
| CC(Cn1cccn1)NC(=O)N1CCN(Cc2ccc(F)cc2)CC1 (centres unmarked) [CBK306948] | 88.9 |
| CCn1cc(CN(C)Cc2csc(C)n2)c2cc(C(=O)O)ncc21 [CBK306950] | 116 |
| CCn1ncc(CN2CCCC(CCC(=O)N3CCN(C)CC3)C2)c1C (centres unmarked) [CBK306951] | 80.4 |
| Cc1nc(CCCn2cnc3ncccc3c2=O)sc1C [CBK306953] | 106 |
| CC(Cc1cnccn1)NC(=O)Nc1cc(N2CCOCC2)ccc1Cl (centres unmarked) [CBK306954] | 111 |
| COC(CNC(=O)Cn1nnnc1CN1CCC(C)CC1)c1cccs1 (centres unmarked) [CBK306958] | 109 |
| COc1ccccc1CN(Cc1cccnc1)C(=O)CCN1CCCO1 [CBK306959] | 98.1 |
| Cc1cc(=O)c2ccccc2n1CC(=O)N(C)CC1CCCCO1 (centres unmarked) [CBK306960] | 94.4 |
| CN(Cc1cnn(C)c1)c1nccc(N2CCN[C@H]3CS(=O)(=O)C[C@H]32)n1 [CBK306964] | 100 |
| CN(CC1CCCCO1)C(=O)c1ccc(-c2ccccc2C(N)=O)cc1 (centres unmarked) [CBK306967] | 92.6 |
| CC(=O)N1CCc2nc(C)nc(N(C)Cc3cnn(C(C)C)c3)c2CC1 [CBK306968] | 83.1 |
| Cc1nc(O)cc(C2CCCN(C(=O)c3scc4c3CCCC4)C2)n1 (centres unmarked) [CBK306969] | 88.5 |
| O=C(NC1CCN(Cc2cc(F)cc(F)c2)CC1)c1cn2ccsc2n1 [CBK306970] | 80 |
| COc1ccccc1CN(Cc1cccnc1)C(=O)c1cnc(C)cn1 [CBK306972] | 95.1 |
| CCCCSc1nc(N)cc(N2CCC(N3CCOC3=O)CC2)n1 [CBK306974] | 82.1 |
| CC(C)c1cc(C(=O)NC2CCN(c3ncccc3C#N)CC2)n(C)n1 [CBK306975] | 87.1 |
